In publication PMC2574882 (The Biochemical journal, 2008):
Entries after “also recorded” stand apart in the source; their conditions may differ.

What was measured:
[1] = NMR titration with ferric ions; assay type: binding; settings: pH 4.0, 298 K, FeCl3, precipitate in the NMR tube
[2] = Solubility for NMR; assay type: physicochemical; settings: 80% H2O/10% ^2H2O/10% 2H6-DMSO
[3] = Absorption titration with ferric citrate; assay type: binding; settings: by relative association constants
[4] = biological target: T1, human CCK1 receptor (Homo sapiens, UniProt P32238); experiment: Receptor binding assay, CCK1 receptor; settings: 1 μM desferrioxamine, COS-7 cells; triplicates, ANOVA
T1 sequence (P32238 1-428): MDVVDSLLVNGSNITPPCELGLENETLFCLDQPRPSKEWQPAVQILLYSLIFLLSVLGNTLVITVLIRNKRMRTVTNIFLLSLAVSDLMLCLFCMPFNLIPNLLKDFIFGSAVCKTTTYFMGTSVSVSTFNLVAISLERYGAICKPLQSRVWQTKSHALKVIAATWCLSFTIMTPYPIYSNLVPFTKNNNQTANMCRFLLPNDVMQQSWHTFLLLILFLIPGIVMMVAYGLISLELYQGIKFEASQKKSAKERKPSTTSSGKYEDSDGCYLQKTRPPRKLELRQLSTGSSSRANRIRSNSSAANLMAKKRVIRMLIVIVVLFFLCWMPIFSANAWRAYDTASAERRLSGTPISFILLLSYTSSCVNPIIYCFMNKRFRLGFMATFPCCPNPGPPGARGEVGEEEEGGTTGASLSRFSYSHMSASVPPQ

[5] = biological target: T2, human CCK2 receptor (Homo sapiens, UniProt P32239); experiment: Receptor binding assay, CCK2 receptor; settings: 1 μM desferrioxamine, COS-7 cells; triplicates, ANOVA
T2 sequence (P32239 1-447): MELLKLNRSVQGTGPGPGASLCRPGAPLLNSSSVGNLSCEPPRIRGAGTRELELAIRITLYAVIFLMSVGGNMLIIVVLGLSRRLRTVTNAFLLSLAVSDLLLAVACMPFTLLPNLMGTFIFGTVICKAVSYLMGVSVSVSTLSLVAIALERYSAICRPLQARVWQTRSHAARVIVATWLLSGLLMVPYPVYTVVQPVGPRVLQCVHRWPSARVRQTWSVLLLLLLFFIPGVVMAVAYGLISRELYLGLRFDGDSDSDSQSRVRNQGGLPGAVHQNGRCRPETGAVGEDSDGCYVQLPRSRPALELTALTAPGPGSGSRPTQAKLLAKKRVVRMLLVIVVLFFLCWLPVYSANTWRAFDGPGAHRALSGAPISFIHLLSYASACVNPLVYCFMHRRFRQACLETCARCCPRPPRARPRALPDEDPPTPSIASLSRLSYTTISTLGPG

[6] = tested on: cell proliferation and migration; settings: cited from earlier work
[7] = cited from earlier work
[8] = Absorption spectroscopy titration with ferric chloride; settings: 40 μM peptide, 298 K

CSCC[C@H](NC(=O)[C@H](Cc1ccc(O)cc1)NC(=O)[C@@H](N)CC(=O)O)C(=O)NCC(=O)N[C@@H](Cc1c[nH]c2ccccc12)C(=O)N[C@@H](CCSC)C(=O)N[C@@H](CC(=O)O)C(=O)N[C@@H](Cc1ccccc1)C(N)=O [CCK8]
solubility of Fe^3+-peptide complex (in words) [1]: formation of an insoluble Fe^3+-peptide complex | solubility (in words) [2]: required the presence of ^2H6-DMSO (80% H2O/10% ^2H2O/10% 2H6-DMSO) to achieve solubility at 0.23 mM

O=C(O)CC(O)(CC(=O)O)C(=O)O [citrate]
relative Fe^3+ binding (in words) [3]: binds Fe^3+ ions more tightly than any of the CCK peptides

CC(=O)N(O)CCCCCNC(=O)CCC(=O)N(O)CCCCCNC(=O)CCC(=O)N(O)CCCCCN [desferrioxamine]
effect on binding of labelled CCK8SO4, CCK1 receptor (in words) [4]: no significant effect; also recorded: inability | effect on binding of labelled CCK8SO4, CCK2 receptor (in words) [5]: no significant effect; also recorded: inability | effect on biological activity of glycine-extended gastrin (in words) ([6]; stimulation of cell proliferation and migration): completely blocked the biological activity of glycine-extended gastrin

N[C@@H](Cc1ccc(OP(=O)(O)O)cc1)C(=O)O [phosphotyrosine]
pKa of the phosphoryl group [7]: 5.9

CCK4
absorbance change on addition of ferric chloride, pH 4.0 (in words) ([8]; pH 4.0, 275 nm): no change in the absorbance; also recorded: did not cause any change in absorption | absorbance change / binding on addition of ferric chloride, pH 6.5 (in words) ([8]; pH 6.5, 275 nm): No evidence of binding of ferric ions; also recorded: no increase in absorbance was seen

ZGPWLEEEEEAYGWMDFamide [amidated gastrin]
requirement of ferric ions for biological activity (in words) [6]: ferric ions were not required for the biological activity
